ChEMBL document CHEMBL1201862, “PubChem BioAssay data set” (2004)
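Test compounds were applied to cells in 96-well plates for 48 hours at 5 doses. At the GI50, growth is halved.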 Calls of active or inactive are those of the source. Rule as the data show it: active = GI50 up to about 1.1 µM and inactive = higher.

Key:
Assay in all cases: NCI tumour cell line growth inhibition, 48 h
786-0 = system: 786-0
A498 = system: A498
A549 = system: A549
ACHN = system: ACHN
BT-549 = system: BT-549
CAKI-1 = system: CAKI-1
CCRF-CEM = system: CCRF-CEM
COLO 205 = system: COLO 205
DU-145 = system: DU-145
EKVX = system: EKVX
HCC 2998 = system: HCC 2998
HCT-116 = system: HCT-116
HL-60 = system: HL-60
HOP-62 = system: HOP-62
HOP-92 = system: HOP-92
HT-29 = system: HT-29
IGROV-1 = system: IGROV-1
K562 = system: K562
KM12 = system: KM12
LOX IMVI = system: LOX IMVI
M14 = system: M14
MCF7 = system: MCF7
MDA-MB-231 = system: MDA-MB-231
MDA-MB-435 = system: MDA-MB-435
MDA-N = system: MDA-N
MOLT-4 = system: MOLT-4
Malme-3M = system: Malme-3M
NCI-H226 = system: NCI-H226
NCI-H23 = system: NCI-H23
NCI-H460 = system: NCI-H460
NCI-H522 = system: NCI-H522
NCI/ADR-RES = system: NCI/ADR-RES
OVCAR-3 = system: OVCAR-3
OVCAR-4 = system: OVCAR-4
OVCAR-5 = system: OVCAR-5
OVCAR-8 = system: OVCAR-8
PC-3 = system: PC-3
RPMI-8226 = system: RPMI-8226
RXF 393 = system: RXF 393
SF-295 = system: SF-295
SF-539 = system: SF-539
SK-MEL-28 = system: SK-MEL-28
SK-MEL-2 = system: SK-MEL-2
SK-MEL-5 = system: SK-MEL-5
SK-OV-3 = system: SK-OV-3
SN12C = system: SN12C
SNB-19 = system: SNB-19
SNB-75 = system: SNB-75
SR = system: SR
SW-620 = system: SW-620
U-251 = system: U-251
UACC-257 = system: UACC-257
UACC-62 = system: UACC-62
UO-31 = system: UO-31
HCT-15 = system: HCT-15
Hs-578T = system: Hs-578T
SF-268 = system: SF-268
TK-10 = system: TK-10

O=c1c2c(sc3ccccc13)NCN(CCc1ccccc1)C2
GI50 (786-0): 29.7 µM (inactive)
GI50 (A498): 67.9 µM (inactive)
GI50 (A549): 49 µM (inactive)
GI50 (ACHN): 35.2 µM (inactive)
GI50 (BT-549): 23.1 µM (inactive)
GI50 (CAKI-1): 41.6 µM (inactive)
GI50 (CCRF-CEM): 43.9 µM (inactive)
GI50 (COLO 205): 18.1 µM (inactive)
GI50 (DU-145): 70.5 µM (inactive)
GI50 (EKVX): 30.8 µM (inactive)
GI50 (HCC 2998): 22.1 µM (inactive)
GI50 (HCT-116): 23.4 µM (inactive)
GI50 (HL-60): > 100 µM (inactive)
GI50 (HOP-62): 34.6 µM (inactive)
GI50 (HOP-92): 53 µM (inactive)
GI50 (HT-29): 18.4 µM (inactive)
GI50 (IGROV-1): 24.7 µM (inactive)
GI50 (K562): 19.7 µM (inactive)
GI50 (KM12): 27.9 µM (inactive)
GI50 (LOX IMVI): 33.5 µM (inactive)
GI50 (M14): 27 µM (inactive)
GI50 (MCF7): 56.6 µM (inactive)
GI50 (MDA-MB-231): 23.5 µM (inactive)
GI50 (MDA-MB-435): 35.1 µM (inactive)
GI50 (MDA-N): 25.6 µM (inactive)
GI50 (MOLT-4): 31.2 µM (inactive)
GI50 (Malme-3M): 43.7 µM (inactive)
GI50 (NCI-H226): 32 µM (inactive)
GI50 (NCI-H23): 38.1 µM (inactive)
GI50 (NCI-H460): 32.7 µM (inactive)
GI50 (NCI-H522): 31.7 µM (inactive)
GI50 (NCI/ADR-RES): 20.7 µM (inactive)
GI50 (OVCAR-3): 73.3 µM (inactive)
GI50 (OVCAR-4): 36.8 µM (inactive)
GI50 (OVCAR-5): 81.5 µM (inactive)
GI50 (OVCAR-8): 28.7 µM (inactive)
GI50 (PC-3): 39.3 µM (inactive)
GI50 (RPMI-8226): 19.9 µM (inactive)
GI50 (RXF 393): 36.3 µM (inactive)
GI50 (SF-295): 20.7 µM (inactive)
GI50 (SF-539): 55.3 µM (inactive)
GI50 (SK-MEL-28): 34.9 µM (inactive)
GI50 (SK-MEL-2): 23.8 µM (inactive)
GI50 (SK-MEL-5): 14.8 µM (inactive)
GI50 (SK-OV-3): 66.5 µM (inactive)
GI50 (SN12C): 41.8 µM (inactive)
GI50 (SNB-19): 30.8 µM (inactive)
GI50 (SNB-75): 16.6 µM (inactive)
GI50 (SR): 42.2 µM (inactive)
GI50 (SW-620): 31.8 µM (inactive)
GI50 (U-251): 36.8 µM (inactive)
GI50 (UACC-257): 33.5 µM (inactive)
GI50 (UACC-62): 34.2 µM (inactive)
GI50 (UO-31): 33.7 µM (inactive)

CON(C)C(=O)C(C)NC(=O)OCc1ccccc1 (stereo not given)
GI50 (786-0): > 100 µM (inactive)
GI50 (A498): > 100 µM (inactive)
GI50 (A549): > 100 µM (inactive)
GI50 (ACHN): > 100 µM (inactive)
GI50 (BT-549): > 100 µM (inactive)
GI50 (CCRF-CEM): > 100 µM (inactive)
GI50 (DU-145): > 100 µM (inactive)
GI50 (EKVX): > 100 µM (inactive)
GI50 (HCC 2998): > 100 µM (inactive)
GI50 (HCT-116): > 100 µM (inactive)
GI50 (HCT-15): > 100 µM
GI50 (HL-60): > 100 µM (inactive)
GI50 (HOP-62): > 100 µM (inactive)
GI50 (HOP-92): > 100 µM (inactive)
GI50 (HT-29): > 100 µM (inactive)
GI50 (Hs-578T): > 100 µM (inactive)
GI50 (IGROV-1): > 100 µM (inactive)
GI50 (K562): > 100 µM (inactive)
GI50 (KM12): > 100 µM (inactive)
GI50 (M14): > 100 µM (inactive)
GI50 (MCF7): > 100 µM (inactive)
GI50 (MDA-MB-435): > 100 µM (inactive)
GI50 (MDA-N): > 100 µM (inactive)
GI50 (MOLT-4): > 100 µM (inactive)
GI50 (Malme-3M): > 100 µM (inactive)
GI50 (NCI-H226): > 100 µM (inactive)
GI50 (NCI-H23): > 100 µM (inactive)
GI50 (NCI-H460): > 100 µM (inactive)
GI50 (NCI/ADR-RES): > 100 µM (inactive)
GI50 (OVCAR-3): > 100 µM (inactive)
GI50 (OVCAR-5): > 100 µM (inactive)
GI50 (OVCAR-8): > 100 µM (inactive)
GI50 (PC-3): > 100 µM (inactive)
GI50 (RPMI-8226): > 100 µM (inactive)
GI50 (RXF 393): > 100 µM (inactive)
GI50 (SF-268): > 100 µM (inactive)
GI50 (SF-295): > 100 µM (inactive)
GI50 (SF-539): > 100 µM (inactive)
GI50 (SK-MEL-28): > 100 µM (inactive)
GI50 (SK-MEL-5): > 100 µM (inactive)
GI50 (SK-OV-3): > 100 µM (inactive)
GI50 (SN12C): > 100 µM (inactive)
GI50 (SNB-19): > 100 µM (inactive)
GI50 (SNB-75): > 100 µM (inactive)
GI50 (SR): > 100 µM (inactive)
GI50 (SW-620): > 100 µM (inactive)
GI50 (TK-10): > 100 µM (inactive)
GI50 (U-251): > 100 µM (inactive)
GI50 (UACC-257): > 100 µM (inactive)
GI50 (UACC-62): > 100 µM (inactive)
GI50 (UO-31): > 100 µM (inactive)
